Data on 31 compounds can be found in patent US9688654B2, “Compounds inhibiting leucine-rich repeat kinase enzyme activity” (Merck Sharp & Dohme Corp., priority 2013, dated 2017).

SMILES strings stand for the structures.

What all share (type): biochemical
For test [1], the target named is T1, LRRK2 (G2019S mutation, GST-LRRK2 (amino acids 970-2527)) (Homo sapiens, UniProt Q5S007, G2019S).
T1 construct: GST-LRRK2 (amino acids 970-2527); GST (N); purchased Life Technologies Corporation
The experiment in a line: LRRK2 Km ATP LanthaScreen Assay. The conditions noted are these: mean IC50. The method, then:
Unless otherwise noted, all LRRK2 IC50 data presented in tables refers to the LRRK2 Km ATP LanthaScreen™ Assay that is described in the Biological Assay section.
The data presented for the 5 mM and Km ATP LanthaScreen™ Assay represents mean IC50 values based on several test results and may have reasonable. deviations depending on the specific conditions and reagents used. Reagents for the LRRK2 5 mM and Km ATP LanthaScreen™ Assay were purchased from Life Technologies Corporation.
• a) 400 nl of a 1:2.15 serial dilution of test compound (98 μM top assay concentration) is spotted via Labcyte Echo to certain wells in a 384 well black, untreated plate. Control wells contain 400 nl of either DMSO or 400 nl of a known inhibitor in DMSO. • b) 10 μl of a 2.5 nM LRRK2 (G2019S mutation, GST-LRRK2 (amino acids 970-2527)) enzyme solution in 1× assay buffer (50 mM Tris pH 8.5, 10 mM MgCl2, 0.01% Brij-35, 1.0 mM EGTA, 2 mM DTT, 0.05 mM NaVO4) is added to all wells. • c) A 30 minute room temperature incubation is followed by addition of 10 μl […]) After a 35 minute room temperature incubation, 20 μl of TR-FRET Dilution Buffer (Invitrogen PV3756B) containing 4 nM Tb-labeled anti-phospho LRRKtide antibody and 20 mM EDTA is added to all wells. • e) Plates are incubated at room temperature for 1 hour and read on an Envision™ multi-mode plate reader with LanthaScreen™ settings. Results are analysed using Assay Data Analyzer. […] Results are analysed using Assay Data Analyzer.

Test [2] addresses T2, AURKB (Aurora B) (Homo sapiens, UniProt Q96GD4).
T2 construct: purchased Life Technologies Corporation
The experiment in a line: Kinase selectivity, Z'-LYTE platform. The conditions noted are these: 1 micromolar compound, read-out: percent inhibition AURKB (Aurora B).

The target in test [3] is T3, BRAF V599E (Homo sapiens, UniProt P15056, V600E).
T3 construct: purchased Life Technologies Corporation
T3 sequence (P15056 whole entry V600E): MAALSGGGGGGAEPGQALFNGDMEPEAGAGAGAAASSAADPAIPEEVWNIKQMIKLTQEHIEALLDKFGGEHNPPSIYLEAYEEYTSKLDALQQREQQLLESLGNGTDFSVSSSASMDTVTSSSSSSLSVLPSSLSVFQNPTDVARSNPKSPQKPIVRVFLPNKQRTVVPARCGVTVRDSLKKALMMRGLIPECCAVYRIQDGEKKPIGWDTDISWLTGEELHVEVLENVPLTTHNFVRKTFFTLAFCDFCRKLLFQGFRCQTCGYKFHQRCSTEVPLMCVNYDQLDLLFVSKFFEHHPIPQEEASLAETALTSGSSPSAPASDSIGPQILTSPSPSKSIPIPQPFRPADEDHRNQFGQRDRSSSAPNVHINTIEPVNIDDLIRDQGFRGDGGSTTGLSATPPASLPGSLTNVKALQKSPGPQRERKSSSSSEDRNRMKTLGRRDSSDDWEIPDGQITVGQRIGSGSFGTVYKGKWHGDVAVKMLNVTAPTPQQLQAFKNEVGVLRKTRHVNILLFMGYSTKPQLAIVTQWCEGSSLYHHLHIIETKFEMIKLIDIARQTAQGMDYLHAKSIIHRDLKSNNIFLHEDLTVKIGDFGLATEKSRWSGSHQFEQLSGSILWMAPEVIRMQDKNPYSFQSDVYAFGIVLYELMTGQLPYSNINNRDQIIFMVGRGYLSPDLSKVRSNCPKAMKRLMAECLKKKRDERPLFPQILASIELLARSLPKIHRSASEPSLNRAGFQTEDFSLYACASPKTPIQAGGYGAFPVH
The experiment in a line: Kinase selectivity, Z'-LYTE platform. The conditions noted are these: 1 micromolar compound, read-out: percent inhibition BRAF V599E.

Test [4] concerns the target T4, CDK1/cyclin B (Homo sapiens, UniProt P06493).
T4 construct: purchased Life Technologies Corporation
The experiment in a line: Kinase selectivity, Z'-LYTE platform. The conditions noted are these: 1 micromolar compound, read-out: percent inhibition CDK1/cyclin B.

The target in test [5] is T5, CHEK2 (CHK2) (Homo sapiens, UniProt O96017).
T5 construct: purchased Life Technologies Corporation
T5 sequence (O96017 whole entry): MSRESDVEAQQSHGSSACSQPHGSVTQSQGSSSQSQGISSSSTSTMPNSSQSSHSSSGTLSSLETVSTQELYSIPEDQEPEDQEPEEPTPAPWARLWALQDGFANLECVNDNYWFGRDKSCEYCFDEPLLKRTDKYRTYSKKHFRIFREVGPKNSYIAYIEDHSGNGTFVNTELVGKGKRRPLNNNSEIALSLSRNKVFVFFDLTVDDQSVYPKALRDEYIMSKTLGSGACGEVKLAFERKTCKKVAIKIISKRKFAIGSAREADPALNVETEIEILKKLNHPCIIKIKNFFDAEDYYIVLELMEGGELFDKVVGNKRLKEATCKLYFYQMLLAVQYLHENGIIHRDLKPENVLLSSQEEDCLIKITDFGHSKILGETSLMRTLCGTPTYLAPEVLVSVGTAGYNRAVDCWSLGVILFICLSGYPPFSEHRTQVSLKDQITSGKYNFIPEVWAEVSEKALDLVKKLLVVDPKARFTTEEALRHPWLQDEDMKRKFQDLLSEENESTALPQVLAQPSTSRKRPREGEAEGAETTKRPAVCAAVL
The experiment in a line: Kinase selectivity, Z'-LYTE platform. The conditions noted are these: 1 micromolar compound, read-out: percent inhibition CHEK2 (CHK2).

In test [6] the target is T6, CLK2 (Homo sapiens, UniProt P49760).
T6 construct: purchased Life Technologies Corporation
T6 sequence (P49760 whole entry): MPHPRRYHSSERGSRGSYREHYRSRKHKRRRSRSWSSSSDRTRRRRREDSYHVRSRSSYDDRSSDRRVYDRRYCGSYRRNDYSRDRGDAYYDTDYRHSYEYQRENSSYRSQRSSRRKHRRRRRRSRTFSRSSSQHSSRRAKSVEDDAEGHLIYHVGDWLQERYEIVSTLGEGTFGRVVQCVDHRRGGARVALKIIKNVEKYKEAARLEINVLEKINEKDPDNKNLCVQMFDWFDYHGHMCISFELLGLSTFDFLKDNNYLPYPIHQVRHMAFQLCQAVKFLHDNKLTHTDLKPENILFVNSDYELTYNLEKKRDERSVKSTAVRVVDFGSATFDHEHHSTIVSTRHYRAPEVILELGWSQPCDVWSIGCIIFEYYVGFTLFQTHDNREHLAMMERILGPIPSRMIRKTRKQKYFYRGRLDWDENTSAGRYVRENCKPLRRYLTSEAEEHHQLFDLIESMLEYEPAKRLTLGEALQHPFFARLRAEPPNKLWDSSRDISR
The experiment in a line: Kinase selectivity, Z'-LYTE platform. The conditions noted are these: 1 micromolar compound, read-out: percent inhibition CLK2.

Test [7] concerns the target T7, DYRK1A (Homo sapiens, UniProt Q13627).
T7 construct: purchased Life Technologies Corporation
The experiment in a line: Kinase selectivity, Z'-LYTE platform. The conditions noted are these: 1 micromolar compound, read-out: percent inhibition DYRK1A.

For test [8], the target named is T8, IRAK1 (Homo sapiens, UniProt P51617).
T8 construct: purchased Life Technologies Corporation
T8 sequence (P51617 whole entry): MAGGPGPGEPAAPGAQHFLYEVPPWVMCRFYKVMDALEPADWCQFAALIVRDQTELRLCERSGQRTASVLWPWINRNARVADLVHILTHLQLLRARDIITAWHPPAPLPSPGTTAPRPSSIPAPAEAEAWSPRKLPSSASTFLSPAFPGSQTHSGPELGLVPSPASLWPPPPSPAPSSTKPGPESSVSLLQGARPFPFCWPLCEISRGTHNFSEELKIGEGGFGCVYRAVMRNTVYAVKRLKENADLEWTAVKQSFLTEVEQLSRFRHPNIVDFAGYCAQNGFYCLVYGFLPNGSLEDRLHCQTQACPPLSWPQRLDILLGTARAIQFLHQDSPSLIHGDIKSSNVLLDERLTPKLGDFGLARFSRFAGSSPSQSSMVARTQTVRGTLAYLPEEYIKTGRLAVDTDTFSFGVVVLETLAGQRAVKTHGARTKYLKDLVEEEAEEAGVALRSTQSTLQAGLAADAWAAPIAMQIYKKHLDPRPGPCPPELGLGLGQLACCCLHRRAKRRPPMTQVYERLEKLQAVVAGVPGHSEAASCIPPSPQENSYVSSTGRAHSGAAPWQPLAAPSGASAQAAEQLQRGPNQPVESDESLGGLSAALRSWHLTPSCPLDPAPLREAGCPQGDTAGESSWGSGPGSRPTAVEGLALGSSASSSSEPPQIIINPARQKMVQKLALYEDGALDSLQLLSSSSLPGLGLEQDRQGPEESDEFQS
The experiment in a line: Kinase selectivity, Adapta platform. The conditions noted are these: 1 micromolar compound, read-out: percent inhibition IRAK1.

Test [9] has as its target T9, JAK3 (Homo sapiens, UniProt P52333).
T9 construct: purchased Life Technologies Corporation
T9 sequence (P52333 1-1124): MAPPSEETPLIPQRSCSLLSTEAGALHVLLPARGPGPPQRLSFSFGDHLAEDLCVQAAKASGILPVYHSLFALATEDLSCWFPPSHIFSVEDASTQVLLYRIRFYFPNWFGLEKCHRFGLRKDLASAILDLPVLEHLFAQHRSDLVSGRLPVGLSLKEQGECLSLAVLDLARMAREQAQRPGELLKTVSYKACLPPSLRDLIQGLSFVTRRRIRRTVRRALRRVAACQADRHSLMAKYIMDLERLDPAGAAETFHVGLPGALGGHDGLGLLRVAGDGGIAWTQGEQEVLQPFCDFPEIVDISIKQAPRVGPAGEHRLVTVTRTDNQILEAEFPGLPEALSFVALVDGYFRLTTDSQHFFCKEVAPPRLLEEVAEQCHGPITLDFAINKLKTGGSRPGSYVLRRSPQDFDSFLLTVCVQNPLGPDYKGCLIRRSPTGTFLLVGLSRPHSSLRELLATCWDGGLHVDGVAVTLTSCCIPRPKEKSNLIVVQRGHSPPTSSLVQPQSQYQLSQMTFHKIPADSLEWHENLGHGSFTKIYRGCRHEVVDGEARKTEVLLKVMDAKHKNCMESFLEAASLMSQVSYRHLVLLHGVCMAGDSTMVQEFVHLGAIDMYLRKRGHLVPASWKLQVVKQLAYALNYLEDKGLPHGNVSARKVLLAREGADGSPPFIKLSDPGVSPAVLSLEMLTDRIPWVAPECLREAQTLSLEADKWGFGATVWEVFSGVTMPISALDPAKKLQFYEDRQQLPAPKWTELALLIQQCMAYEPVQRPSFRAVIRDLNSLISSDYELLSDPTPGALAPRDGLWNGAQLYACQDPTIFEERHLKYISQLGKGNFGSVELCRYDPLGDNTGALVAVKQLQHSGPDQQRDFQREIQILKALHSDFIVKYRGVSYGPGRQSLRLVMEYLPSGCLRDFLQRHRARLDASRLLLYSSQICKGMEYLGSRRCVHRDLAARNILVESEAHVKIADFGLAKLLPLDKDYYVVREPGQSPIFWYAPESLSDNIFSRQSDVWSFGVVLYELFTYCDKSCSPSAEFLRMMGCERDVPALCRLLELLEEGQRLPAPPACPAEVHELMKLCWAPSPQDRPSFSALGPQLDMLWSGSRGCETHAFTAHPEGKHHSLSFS
The experiment in a line: Kinase selectivity, Z'-LYTE platform. The conditions noted are these: 1 micromolar compound, read-out: percent inhibition JAK3.

The target of test [10] is T10, MAPK1 (ERK2) (Homo sapiens, UniProt P28482).
T10 construct: purchased Life Technologies Corporation
T10 sequence (P28482 whole entry): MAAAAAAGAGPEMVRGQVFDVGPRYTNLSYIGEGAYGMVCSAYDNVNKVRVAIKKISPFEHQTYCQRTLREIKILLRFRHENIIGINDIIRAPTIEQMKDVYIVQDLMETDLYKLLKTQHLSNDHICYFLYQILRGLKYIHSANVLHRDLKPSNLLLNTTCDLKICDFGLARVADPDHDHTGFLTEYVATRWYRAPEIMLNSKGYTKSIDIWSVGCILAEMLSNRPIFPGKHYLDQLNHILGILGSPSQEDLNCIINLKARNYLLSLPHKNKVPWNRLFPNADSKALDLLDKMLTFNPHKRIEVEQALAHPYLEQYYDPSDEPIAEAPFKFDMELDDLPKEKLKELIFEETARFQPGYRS
The experiment in a line: Kinase selectivity, Z'-LYTE platform. The conditions noted are these: 1 micromolar compound, read-out: percent inhibition MAPK1 (ERK2).

In test [11] the target is T11, MAPK8 (JNK1) (Homo sapiens, UniProt P45983).
T11 construct: purchased Life Technologies Corporation
T11 sequence (P45983 whole entry): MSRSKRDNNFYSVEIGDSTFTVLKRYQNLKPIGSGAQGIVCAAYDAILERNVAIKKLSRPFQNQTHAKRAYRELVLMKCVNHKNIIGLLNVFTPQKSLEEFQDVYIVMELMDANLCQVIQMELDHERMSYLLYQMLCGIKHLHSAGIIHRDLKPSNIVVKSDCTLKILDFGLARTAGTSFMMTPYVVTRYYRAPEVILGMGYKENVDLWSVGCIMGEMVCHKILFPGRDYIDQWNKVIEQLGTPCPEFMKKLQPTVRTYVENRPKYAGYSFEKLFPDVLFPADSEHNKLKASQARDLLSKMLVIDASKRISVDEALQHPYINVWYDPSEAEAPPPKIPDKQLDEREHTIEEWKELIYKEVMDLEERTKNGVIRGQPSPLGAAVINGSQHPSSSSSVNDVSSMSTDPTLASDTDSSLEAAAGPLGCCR
The experiment in a line: Kinase selectivity, Z'-LYTE platform. The conditions noted are these: 1 micromolar compound, read-out: percent inhibition MAPK8 (JNK1).

T4 sequence (P06493 whole entry): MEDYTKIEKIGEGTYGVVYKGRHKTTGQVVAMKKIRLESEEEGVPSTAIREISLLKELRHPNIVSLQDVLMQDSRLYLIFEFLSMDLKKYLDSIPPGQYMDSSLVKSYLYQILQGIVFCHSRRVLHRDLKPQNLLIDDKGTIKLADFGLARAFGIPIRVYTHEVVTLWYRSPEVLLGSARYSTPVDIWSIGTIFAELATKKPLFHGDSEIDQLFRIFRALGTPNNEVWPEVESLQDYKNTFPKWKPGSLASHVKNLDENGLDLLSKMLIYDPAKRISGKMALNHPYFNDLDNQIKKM
T4 sequence (P14635 whole entry partner): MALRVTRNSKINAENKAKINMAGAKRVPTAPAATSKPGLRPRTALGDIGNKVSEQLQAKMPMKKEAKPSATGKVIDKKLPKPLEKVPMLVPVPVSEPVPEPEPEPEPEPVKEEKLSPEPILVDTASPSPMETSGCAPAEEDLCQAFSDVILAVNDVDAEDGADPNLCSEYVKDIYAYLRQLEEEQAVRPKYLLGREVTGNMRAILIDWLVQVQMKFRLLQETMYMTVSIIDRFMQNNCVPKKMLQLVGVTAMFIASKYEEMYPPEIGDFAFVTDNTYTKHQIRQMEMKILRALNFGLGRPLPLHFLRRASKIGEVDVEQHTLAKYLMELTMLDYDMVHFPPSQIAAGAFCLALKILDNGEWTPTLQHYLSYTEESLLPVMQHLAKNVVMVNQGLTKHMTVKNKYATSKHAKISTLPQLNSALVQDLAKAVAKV
T2 sequence (Q96GD4 whole entry): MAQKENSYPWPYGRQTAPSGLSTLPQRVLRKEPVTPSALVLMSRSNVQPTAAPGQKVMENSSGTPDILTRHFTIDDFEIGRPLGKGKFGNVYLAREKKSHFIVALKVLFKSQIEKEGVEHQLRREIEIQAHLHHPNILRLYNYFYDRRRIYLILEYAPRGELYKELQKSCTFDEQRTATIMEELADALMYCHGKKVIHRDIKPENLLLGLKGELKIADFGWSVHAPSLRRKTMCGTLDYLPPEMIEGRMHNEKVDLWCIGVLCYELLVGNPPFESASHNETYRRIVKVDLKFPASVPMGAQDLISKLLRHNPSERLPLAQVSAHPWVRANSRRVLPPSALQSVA

Compound `CC1(Oc2ccc3[nH]nc(-c4ccnc(N5CC[C@@H](N)C5)c4)c3c2)CC1` [Example 36] came in with an IC50 in test [1] of 0.002 µM. In [1], `O=S1(=O)CCCN(c2cc(-c3n[nH]c4ccc(OC5CC5)cc34)ccn2)CC1` [Example 16] had an IC50 of 0.071 µM. Same read-out and setting: under `CS(=O)(=O)N1CCCN(c2cc(-c3n[nH]c4ccc(OC5CC5)cc34)ccn2)CC1` [Example 17] stands 0.051 µM.

`FC1(F)CCCN(c2cc(-c3n[nH]c4ccc(OC5CC5)cc34)ccn2)C1` [Example 20]: the IC50 in test [1] amounted to 0.022 µM. `F[C@H]1CN(c2cc(-c3n[nH]c4ccc(OC5CC5)cc34)ccn2)C[C@@H]1F` [Example 14]: in [1], the IC50 came out at 0.019 µM. In [1], `C[C@@H]1CN(c2cc(-c3n[nH]c4ccc(OC5(C)CC5)cc34)ccn2)CCO1` [Example 29] had an IC50 of 0.0006 µM. In addition, the inhibition at 1 µM in [2] was 11%; in test [3], 18%; in [4], 26%; in test [5], 2%; in test [6], 53%; in test [7] it was 4%. The inhibition at 1 µM worked out at 8% in test [8], 46% in [9], 18% in test [10] and 54% in [11]. For `C[C@@H]1CN(c2cc(-c3n[nH]c4ccc(OC5(C)CC5)cc34)ccn2)C[C@H](C)O1` [Example 30], the IC50 in test [1] stood at 0.0009 µM. In addition, the inhibition at 1 µM in [2] came out at 6%; in test [3] it was 5%; in test [4], 9%; in test [5] it was 8%; in [6] it was 49%; in test [7] it was 3%. In addition, the inhibition at 1 µM was -17% in test [8], 37% in test [9], 10% in [10] and 39% in [11]. In [1], `Fc1cc2[nH]nc(-c3ccnc(N4CCOCC4)c3)c2cc1OC1CC1` [Example 3] showed an IC50 of 0.0012 µM. The same measure, in the same setting: then `c1cc(-c2n[nH]c3ccc(OC4CC4)cc23)cc(N2CCOC3(CC3)C2)n1` [Example 6], with 0.017 µM; and `c1cnn(C2CCN(c3cc(-c4n[nH]c5ccc(OC6CC6)cc45)ccn3)CC2)c1` [Example 13], with 0.016 µM.

Turning to `O[C@H]1CCN(c2cc(-c3n[nH]c4ccc(OC5CC5)cc34)ccn2)C1` [Example 24], in test [1], the midpoint of inhibition, the IC50, lay at 0.029 µM. On the same count and under the same terms, under `C[C@H]1[C@H](N)[C@@H](O)CN1c1cc(-c2n[nH]c3ccc(OC4(C)CC4)cc23)ccn1` [Example 35] stands 0.0011 µM. Compound `c1cc(-c2n[nH]c3ccc(OC4CC4)cc23)cc(N2CCc3oc(C4CC4)nc3C2)n1` [Example 19] had an IC50 in test [1] of 0.054 µM. `FC1(F)CN(c2cc(-c3n[nH]c4ccc(OC5CC5)cc34)ccn2)C1` [Example 25] gave an IC50 in test [1] of 0.04 µM. On the same count and under the same terms, then `FC1(F)CCN(c2cc(-c3n[nH]c4ccc(OC5CC5)cc34)ccn2)C1` [Example 21], with 0.019 µM; and `CC1(Oc2ccc3[nH]nc(-c4ccnc(N5CC6CCC(C5)O6)c4)c3c2)CC1` [Example 4], with 0.023 µM. In turn, `CO[C@H]1CN(c2cc(-c3n[nH]c4ccc(OC5CC5)cc34)ccn2)C[C@@H]1O` [Example 10] showed an IC50 in [1] of 0.023 µM. In [1], `CN1CCN(c2cc(-c3n[nH]c4ccc(OC5(C)CC5)cc34)ccn2)CC1` [Example 32] yielded an IC50 of 0.0006 µM. Regarding `O=S1(=O)CC2CC(C1)N(c1cc(-c3n[nH]c4ccc(OC5CC5)cc34)ccn1)C2` (stereo not shown) [Example 11], the IC50 in [1] is 0.111 µM. Compared with the last compound, the IC50 is about 190-fold higher. For `CC1(Oc2ccc3[nH]nc(-c4ccnc(N5CCOCC5)c4)c3c2)CC1` [Example 27], in test [1], 0.0006 µM corresponded to half-maximal inhibition (IC50). Besides, the inhibition at 1 µM was 15% in test [2]; 29% in [3]; 33% in test [4]; 14% in test [5]; 46% in [6]; 6% in [7]. The inhibition at 1 µM in test [8] was 18%; in [9], 56%; in test [10], 23%; in test [11] it was 61%.

`CN1CCN(c2cc(-c3n[nH]c4ccc(OC5(C)CC5)cc34)ccn2)CC1=O` [Example 33] showed an IC50 in [1] of 0.001 µM.

In test [1], `CC1(Oc2ccc3[nH]nc(-c4ccnc(N5CCN(S(C)(=O)=O)CC5)c4)c3c2)CC1` [Example 31] displayed an IC50 of 0.0006 µM. In test [1], `CC1(Oc2ccc3[nH]nc(-c4ccnc(N5C6CCC5COC6)c4)c3c2)CC1` [Example 5] returned an IC50 of 0.067 µM. This IC50 is about 110-fold higher than that of the compound before. Same read-out and setting: then `FC1(F)CCN(c2cc(-c3n[nH]c4ccc(OC5CC5)cc34)ccn2)CC1` [Example 8], with 0.03 µM. On the same count and under the same terms, then `c1cc(-c2n[nH]c3ccc(OC4COC4)cc23)cc(N2CCOCC2)n1` [Example 2], with 0.02 µM; and `[O-][S+]1CCCN(c2cc(-c3n[nH]c4ccc(OC5CC5)cc34)ccn2)CC1` (stereo not shown) [Example 15], with 0.044 µM.

In the case of `c1cc(-c2n[nH]c3ccc(OC4CC4)cc23)cc(N2CCOCC2)n1` [Example 1], in [1], the IC50 came out at 0.04 µM. The IC50 values of the last two compounds are within 1.5-fold of each other. On the same count and under the same terms, under `CO[C@H]1CCN(c2cc(-c3n[nH]c4ccc(OC5CC5)cc34)ccn2)C1` [Example 22] stands 0.017 µM; under `CC1(Oc2ccc3[nH]nc(-c4ccnc(N5CC[C@H](N)C5)c4)c3c2)CC1` [Example 37], 0.0026 µM.

Consider `C[C@H]1[C@H](O)[C@@H](O)CN1c1cc(-c2n[nH]c3ccc(OC4(C)CC4)cc23)ccn1` [Example 34], for which, in test [1], the IC50 worked out at 0.0007 µM. In [1], `c1cc(-c2n[nH]c3ccc(OC4CC4)cc23)cc(N2CCC(n3cncn3)CC2)n1` [Example 12] came in with an IC50 of 0.01 µM. This IC50 lies about 14-fold higher than the previous one.
